Patent US11124510B2, “Alkyl chain modified imidazoquinoline TLR7/8 agonist compounds and uses thereof” (Dynavax Technologies Corporation, priority 2017, dated 2021)

What was measured:
CT26 colon carcinoma [1] = experiment: Anti-tumor efficacy of squalene oil-in-water nanoemulsion with or without AH-1 peptide in two flank CT26 colon carcinoma-bearing mice; assay type: in vivo
Protocol: The effect of repeated weekly doses of intratumorally-delivered pharmaceutical compositions comprised of Compound No. 63-10 formulated in a squalene-based oil-in-water nanoemulsion that was co-formulated with the CT-26 tumor associated AH-1 […] peptide (immunodominant epitope sequence from the endogenous retroviral gene product gp70; see e.g., Rice J, Buchan S and Stevenson F 2002 J Immunol 169:3908-3913) on injected and distal tumor growth inhibition was assessed in CT26 colon carcinoma-bearing Balb/c mice bearing tumors in 2 flanks. All in vivo procedures were conducted in accordance with approved IACUC protocols. The animals were housed in a facility that is accredited by the AALAC. Wild-type female Balb/c mice (15-20 g) were obtained from Envigo (Hayward, Calif.) and acclimated for 2-3 days prior to use.
Pharmaceutical compositions comprised of squalene-based oil-in-water nanoemulsions were made generally as described in Example B2-2. […] Right (injected) and left (distal) tumor volumes were then measured twice weekly from days 8 through day 30 with calipers, with tumor volumes calculated using the formula: length, multiplied by width, multiplied by width, divided by 2.

CT26 colon carcinoma [2] = experiment: Anti-tumor efficacy, repeated intratumoral dosing in CT26 colon carcinoma-bearing wild-type mice; assay type: in vivo; conditions: 0.5-20 μg in 95% sesame oil/5% ethanol
Protocol: The effect of repeated weekly doses of intratumorally delivered pharmaceutical compositions comprised of Compound No. 63-10, 63-18, or 63-33 formulated in 95% sesame oil/5% ethanol (v/v) on tumor growth inhibition was assessed in syngeneic CT26 colon carcinoma-bearing Balb/c mice. All in vivo procedures were conducted in accordance with approved Institutional Animal Care and Use Committee (IACUC) protocols. The animals were housed in a facility that is accredited by the Association for Accreditation and Laboratory Animal Care (AALAC, Frederick, Md.). Wild-type female Balb/c mice (15-20 gm) were obtained from Envigo (Hayward, Calif.) and acclimated for 2-3 days prior to use.
The pharmaceutical compositions were made with the three compounds at final concentrations of 5, 50, and 200 μg/mL in a manner similar to that described in Example B2-1. […] On day 0, mice were anesthetized with 1% isoflurane and 80,000 CT26 tumor cells in 200 uL of RMPI-1640 culture media plus 2.5% fetal bovine serum were injected subcutaneously in the right flank. Tumors were allowed to grow until they were ˜35 mm^3, at which point animals were assigned to groups to begin treatment. Mice were injected weekly for 4 weeks intratumorally with 100 uL of a pharmaceutical composition comprising 20, 5, or 0.5 μgs of Compound No. 63-10, or 20 or 5 μgs of Compound Nos. 63-18, or 63-33 formulated in 95% sesame oil/5% ethanol (v/v), or a vehicle control, twice weekly for 3 weeks (experimental days 9, 12, 16, 19, 23, and 26). The TLR9 CpG agonist was injected intratumorally with 100 μL of a pharmaceutical composition comprised of 50 μgs of compound formulated in phosphate buffered saline on the same dosing schedule. Tumor sizes were measured twice weekly from days 8 through day 30 with calipers, with tumor volumes calculated using the formula: length, multiplied by width, multiplied by width, divided by 2.

TLR8 = TLR8 (Homo sapiens (Human), UniProt Q9NR97); experiment: TLR8 agonist bioactivity: induction of TNFα protein in monocyte cultures (ELISA, 24 h); assay type: cell-based
Protocol: Monocytes were magnetically isolated from PBMCs, prepared as described above, following labeling with CD14 microbeads (Miltenyi Biotec, San Diego Calif.), according to the manufacturer's instructions. […] Culture supernatants were collected and tumor necrosis factor alpha (TNFα) protein levels were measured by ELISA (MabTech, Cincinnati Ohio), according to the manufacturer's instructions.

serum IL-6 and IL-12p40 = experiment: In vivo systemic immune activation assay: serum IL-6 and IL-12p40 by ELISA after single subcutaneous injection; parameters: species or system mice; conditions: for serum IL-6 / serum IL-12p40: 5 μg subcutaneously in footpad, 95% sesame oil/5% ethanol, ± SEM
Protocol: Small molecule TLR7 and TLR7/8 agonists derived from the 1H-imidazo[4,5-c]quinoline privileged template (see e.g., Imiquimod, Resiquimod) are known to rapidly distribute to the systemic compartment following intratumoral, subcutaneous, or intramuscular injection. Broad systemic distribution of these agonist compounds in wild-type mice induces TLR7-dependent cytokine responses, primarily in spleen and liver cells, which can subsequently be detected in the serum within 3-6 hours. The rapid increase in serum cytokine biomarkers (e.g., IL-6 and IL-12p40) can be used to assess the kinetics of systemic distribution of a locally administered TLR agonist.
The kinetics of distribution of pharmaceutical compositions comprised of Compound Nos. 63-00, 63-17, or 63-10 formulated in 95% sesame oil/5% ethanol (v/v) were assessed following a single subcutaneous injection in wild-type mice. All in vivo procedures were conducted in accordance with approved Institutional Animal Care and Use Committee (IACUC) protocols. The animals were housed in a facility that is accredited by the Association for Accreditation and Laboratory Animal Care (AALAC, Frederick Md.). Wild-type female BALB/c mice (15-20 gm) were obtained from Envigo (Hayward, Calif.) and acclimated for 2-3 days prior to use.
The pharmaceutical compositions were made with the three compounds, at a final concentration of 200 μg/mL, in a manner similar to that described in Example B2-1. At T=0, groups of 3 mice were anesthetized with 1% isoflurane and injected subcutaneously in the right footpad with 5 μg of each of the three compounds, or a vehicle control, in 25 uL of 95% sesame oil/5% ethanol (v/v). Then, at T=3, 6, and 24 hours, three animals from each group were anesthetized with 1% isoflurane to facilitate blood collection by cardiac puncture. Samples were processed to serum, and stored at −20° C. for further analysis.

Chain of TLR8 (Q9NR97 27-1041): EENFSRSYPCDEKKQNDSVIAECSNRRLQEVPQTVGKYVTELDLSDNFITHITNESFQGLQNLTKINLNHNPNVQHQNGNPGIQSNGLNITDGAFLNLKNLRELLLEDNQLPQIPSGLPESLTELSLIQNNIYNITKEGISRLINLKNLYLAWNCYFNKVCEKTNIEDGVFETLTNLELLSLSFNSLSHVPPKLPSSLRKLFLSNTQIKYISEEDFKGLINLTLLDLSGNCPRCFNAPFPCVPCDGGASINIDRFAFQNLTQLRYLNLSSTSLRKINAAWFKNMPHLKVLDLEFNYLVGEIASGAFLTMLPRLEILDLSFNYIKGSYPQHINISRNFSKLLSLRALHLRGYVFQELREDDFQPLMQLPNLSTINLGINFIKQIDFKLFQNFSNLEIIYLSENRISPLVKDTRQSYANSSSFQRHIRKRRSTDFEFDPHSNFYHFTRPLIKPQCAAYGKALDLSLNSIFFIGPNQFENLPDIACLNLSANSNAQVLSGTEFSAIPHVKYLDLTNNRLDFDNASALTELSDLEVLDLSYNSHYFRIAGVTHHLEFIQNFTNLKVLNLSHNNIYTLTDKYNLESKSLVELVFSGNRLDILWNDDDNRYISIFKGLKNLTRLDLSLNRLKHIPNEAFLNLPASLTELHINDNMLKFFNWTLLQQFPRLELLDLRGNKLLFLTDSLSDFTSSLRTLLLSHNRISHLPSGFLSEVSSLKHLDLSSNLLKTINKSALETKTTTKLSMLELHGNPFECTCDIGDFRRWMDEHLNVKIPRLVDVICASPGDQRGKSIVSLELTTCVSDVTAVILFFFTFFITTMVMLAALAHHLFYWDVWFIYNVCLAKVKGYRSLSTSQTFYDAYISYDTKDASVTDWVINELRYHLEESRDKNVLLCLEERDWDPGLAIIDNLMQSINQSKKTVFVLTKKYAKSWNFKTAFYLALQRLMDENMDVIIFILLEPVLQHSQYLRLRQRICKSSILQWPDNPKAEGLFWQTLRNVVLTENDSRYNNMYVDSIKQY

In the case of `CCCCCCCCCCCCCC(=O)NCc1ccc(Cn2c(CCCC)nc3c(N)nc4ccccc4c32)cc1` [Compound No. 63-10, N-(4-((4-amino-2-butyl-1H-imidazo[4,5-c]quinolin-1-yl)methyl)benzyl)tetradecanamide], the “tumor growth inhibition in the distal (left) tumor compared to the nanoemulsion vehicle control” value (CT26 colon carcinoma [1]; day 23, 50 ng intratumoral days 8, 12, 16, 20) is reported as “not significantly different from the vehicle control”, the “tumor growth inhibition in the injected (right) tumor compared to the nanoemulsion vehicle control” value (CT26 colon carcinoma [1]; day 27, 50 ng intratumoral days 8, 12, 16, 20) is reported as “not significantly different from the vehicle control” and the “CT26 tumor growth control compared to the vehicle control” value (CT26 colon carcinoma [2]) is reported as “robust CT26 tumor growth control”. For the same molecule, the EC50 (TLR8; TNFα induction, human monocytes, 24 hours) was 522 nM, the “fold loss of TLR8 agonist potency compared to Compound No. 63-00 (IMDQ)” value (TLR8; less potent than IMDQ) was 2.4 fold and the “serum IL-6” value (serum IL-6 and IL-12p40; 3 hours) was 49 ± 32 pg/mL. For the same molecule, the “serum IL-12p40” value (serum IL-6 and IL-12p40; 3 hours) was 1,012±246 pg/mL, the “serum IL-6” value (serum IL-6 and IL-12p40; 6 hours) was 33 ± 4 pg/mL and the “serum IL-12p40” value (serum IL-6 and IL-12p40; 6 hours) was 2,179±597 pg/mL. The “serum IL-6” value (serum IL-6 and IL-12p40; 24 hours) was 32 ± 2 pg/mL, the “serum IL-12p40” value (serum IL-6 and IL-12p40; 24 hours) was 2,436±237 pg/mL and the “increase in serum cytokines” value (serum IL-6 and IL-12p40; at 3, 6, or 24 hours, 5 μg subcutaneously) was “no detectable increase”.
